Numbers after ± are expanded uncertainties.
Experiment: refractive index (other wavelength) (dimensionless); xn = mol fraction of the nth substance listed
Settings: 288.62 K, 100 kPa, Liquid, Wavelength=632.8 nm, minimum deviation angle technique

N#Cc1ccccc1 [benzonitrile] + CCCCCCCCCC
Settings | refractive index
x1 = 0.112 | 1.4196 ± 0.0003
x1 = 0.188 | 1.4249 ± 0.0003
x1 = 0.34 | 1.4371 ± 0.0003
x1 = 0.396 | 1.4422 ± 0.0003
x1 = 0.49 | 1.4514 ± 0.0004
x1 = 0.608 | 1.4647 ± 0.0004
x1 = 0.702 | 1.4771 ± 0.0004
x1 = 0.821 | 1.4952 ± 0.0004
x1 = 0.912 | 1.5105 ± 0.0005
x1 = 1 | 1.5277 ± 0.0003
